Results reported in US7015228B2, “4-amino-2-(2-pyridyl)pyrimidines as microbicidal active substances” (Ciba Specialty Chemicals Corporation, priority 2001, dated 2006).
Converted amounts (≈) assume the structure as drawn. Read-outs that look alike come from different tables or passages of the source.

Legend:
Type in all cases: cell-based
[1] = tested on: Escherichia coli NCTC 8196; experiment: Minimum inhibitory concentration (MIC) in microtitre plates; details: for MIC: Escherichia coli, NCTC8196
Procedure: (§1) Determination of the Minimum Inhibitory Concentration (MIC Value) in Microtitre Plates
(§2) Casein-soybean flour-peptone broth for preparation of pre-cultures of test bacteria and yeast.
(§3) Mycological slant agar for the pre-culture of moulds
(§4) Examples of Test Organisms:
(§5) The test substances are pre-dissolved in dimethyl sulfoxide (DMSO) and tested in a dilution series of 1:2.
(§6) Bacteria and yeast are cultured overnight in CASO broth, the mould is cultured overnight on mycological slant agar, and washed off using 10 ml of 0.85% sodium chloride solution (+0.1% Triton X-100).
(§7) All the test organisms are adjusted to an organism count of 1–5×10^6 CFU/ml using 0.85% sodium chloride solution.
(§8) The test substances are pre-pipetted into microtitre plates in amounts of 8 μl per well.
(§9) Pre-diluted organism suspensions are diluted 1:100 in CASO broth (bacteria and yeast) or Sabouraud 2% glucose broth (mould) and are added in amounts of 192 μl per well to the test substances.
(§10) The test batches are incubated for 48 hours at 37° C. (bacteria and yeast) or for 5 days at 28° C. (mould).
(§11) After incubation, the growth is determined on the basis of the turbidity of the test batches (optical density) at 620 nm in a microplate reader.
(§12) The minimum inhibitory concentration (MIC value) is the concentration of substance at which there is found (compared to the growth of the control) an appreciable inhibition of growth (≦20% growth) of the test organisms.
(§13) One microtitre plate is used for each test organism and substance concentration. All the substances are tested in duplicate.

[2] = tested on: Staphylococcus hominis DMS 20328; experiment: as above; details: Table 7, 48 hours at 37° C., MIC = ≦20% growth compared to control; for MIC: Staphylococcus hominis, DMS20328, read-out: Minimum inhibitory concentration (MIC) S. hominis
Procedure: as §1, §2, §3, §4, §5, §6, §7, §8, §9, §10, §11, §12, §13

[3] = tested on: Staphylococcus aureus ATCC 9144; experiment: Minimum inhibitory concentration (MIC), further microorganisms; details: Table 8, * = significant inhibition of growth, but not complete inhibition; for MIC: Staphylococcus aureus, ATCC9144
Procedure: as §1, §2, §3, §5, §6, §7, §8, §9, §10, §11, §12, §13

[4] = tested on: Epidermophyton floccosum DSM 10709; experiment: as above; details: Table 8, * = significant inhibition of growth, but not complete inhibition; for MIC: Epidermophyton floccosum, DSM10709
Procedure: as §1, §2, §3, §5, §6, §7, §8, §9, §10, §11, §12, §13

[5] = tested on: Trichophyton mentagrophytes ATCC 9533; experiment: as above; details: Table 8, * = significant inhibition of growth, but not complete inhibition; for MIC: Trichophyton mentagrophytes, ATCC9533
Procedure: as §1, §2, §3, §5, §6, §7, §8, §9, §10, §11, §12, §13

[6] = tested on: Enterococcus hirae ATCC 10541; experiment: as above; details: Table 8, * = significant inhibition of growth, but not complete inhibition; for MIC: Enterococcus hirae, ATCC10541
Procedure: as §1, §2, §3, §5, §6, §7, §8, §9, §10, §11, §12, §13

[7] = tested on: Micrococcus luteus ATCC 9341; experiment: as above; details: Table 8, * = significant inhibition of growth, but not complete inhibition; for MIC: Micrococcus luteus, ATCC9341
Procedure: as §1, §2, §3, §5, §6, §7, §8, §9, §10, §11, §12, §13

[8] = tested on: S. epidermidis ATCC 12228; experiment: as above; details: Table 8, * = significant inhibition of growth, but not complete inhibition; for MIC: Staphylococcus epidermidis, ATCC12228
Procedure: as §1, §2, §3, §5, §6, §7, §8, §9, §10, §11, §12, §13

[9] = Table 7, 48 hours at 37° C., MIC = ≦20% growth compared to control
[10] = Table 8, * = significant inhibition of growth, but not complete inhibition
[11] = Table 7, 48 hours at 37° C., MIC = ≦20% growth compared to control, read-out: Minimum inhibitory concentration (MIC) E. coli
[12] = Table 8, * = significant inhibition of growth, but not complete inhibition, read-out: Minimum inhibitory concentration (MIC) E. coli NCTC 8196

CCCCCCCCNc1nc(-c2ccccn2)nc(C)c1CC [compound 9]
Minimum inhibitory concentration (MIC) E. coli [1, 9]: >120 µg/mL | Minimum inhibitory concentration (MIC) E. coli NCTC 8196 [1, 10]: >60 µg/mL | Minimum inhibitory concentration (MIC) S. hominis [2]: 7.5 µg/mL (≈ 23 µM) | Minimum inhibitory concentration (MIC) Staphylococcus aureus ATCC 9144 [3]: 15 µg/mL (≈ 45.9 µM) | Minimum inhibitory concentration (MIC) Epidermophyton floccosum DSM 10709 [4]: *15 μg/mL | Minimum inhibitory concentration (MIC) Trichophyton mentagrophytes ATCC 9533 [5]: *30 μg/mL | Minimum inhibitory concentration (MIC) Enterococcus hirae ATCC 10541 [6]: 30 µg/mL (≈ 91.9 µM) | Minimum inhibitory concentration (MIC) Micrococcus luteus ATCC 9341 [7]: 3.75 µg/mL (≈ 11.5 µM) | Minimum inhibitory concentration (MIC) S. epidermidis ATCC 12228 [8]: *15 μg/mL

CCCCCCCCCNc1nc(-c2ccccn2)nc(C)c1CC [compound 10]
Minimum inhibitory concentration (MIC) E. coli [1, 9]: >80 µg/mL | Minimum inhibitory concentration (MIC) E. coli NCTC 8196 [1, 10]: >60 µg/mL | Minimum inhibitory concentration (MIC) S. hominis [2]: 5 µg/mL (≈ 14.7 µM) | Minimum inhibitory concentration (MIC) Staphylococcus aureus ATCC 9144 [3]: 15 µg/mL (≈ 44.1 µM) | Minimum inhibitory concentration (MIC) Epidermophyton floccosum DSM 10709 [4]: 60 µg/mL (≈ 176 µM) | Minimum inhibitory concentration (MIC) Trichophyton mentagrophytes ATCC 9533 [5]: 60 µg/mL (≈ 176 µM) | Minimum inhibitory concentration (MIC) Enterococcus hirae ATCC 10541 [6]: 30 µg/mL (≈ 88.1 µM) | Minimum inhibitory concentration (MIC) Micrococcus luteus ATCC 9341 [7]: <0.5 µg/mL | Minimum inhibitory concentration (MIC) S. epidermidis ATCC 12228 [8]: 15 µg/mL (≈ 44.1 µM)

CCCCCCCCCCNc1nc(-c2ccccn2)nc(C)c1CC [compound 11]
Minimum inhibitory concentration (MIC) E. coli [1, 9]: >120 µg/mL | Minimum inhibitory concentration (MIC) E. coli NCTC 8196 [1, 10]: >60 µg/mL | Minimum inhibitory concentration (MIC) S. hominis [2]: 3.75 µg/mL (≈ 10.6 µM) | Minimum inhibitory concentration (MIC) Staphylococcus aureus ATCC 9144 [3]: 7.5 µg/mL (≈ 21.2 µM) | Minimum inhibitory concentration (MIC) Epidermophyton floccosum DSM 10709 [4]: >60 µg/mL | Minimum inhibitory concentration (MIC) Trichophyton mentagrophytes ATCC 9533 [5]: >60 µg/mL | Minimum inhibitory concentration (MIC) Enterococcus hirae ATCC 10541 [6]: 7.5 µg/mL (≈ 21.2 µM) | Minimum inhibitory concentration (MIC) Micrococcus luteus ATCC 9341 [7]: 1.9 µg/mL (≈ 5.36 µM) | Minimum inhibitory concentration (MIC) S. epidermidis ATCC 12228 [8]: 7.5 µg/mL (≈ 21.2 µM)

CCCCCCCCCCNc1cc(C)nc(-c2ccccn2)n1 [compound 23]
Minimum inhibitory concentration (MIC) E. coli [1, 9]: >120 µg/mL | Minimum inhibitory concentration (MIC) E. coli NCTC 8196 [1, 10]: >60 µg/mL | Minimum inhibitory concentration (MIC) S. hominis [2]: 3.75 µg/mL (≈ 11.5 µM) | Minimum inhibitory concentration (MIC) Staphylococcus aureus ATCC 9144 [3]: 7.5 µg/mL (≈ 23 µM) | Minimum inhibitory concentration (MIC) Epidermophyton floccosum DSM 10709 [4]: *15 μg/mL | Minimum inhibitory concentration (MIC) Trichophyton mentagrophytes ATCC 9533 [5]: 15 µg/mL (≈ 45.9 µM) | Minimum inhibitory concentration (MIC) Enterococcus hirae ATCC 10541 [6]: 3.75 µg/mL (≈ 11.5 µM) | Minimum inhibitory concentration (MIC) Micrococcus luteus ATCC 9341 [7]: <0.5 µg/mL | Minimum inhibitory concentration (MIC) S. epidermidis ATCC 12228 [8]: 7.5 µg/mL (≈ 23 µM)

CCCCCCCNc1cc(C(F)(F)F)nc(-c2ccccn2)n1 [compound 32]
Minimum inhibitory concentration (MIC) E. coli [1, 9]: >120 µg/mL | Minimum inhibitory concentration (MIC) E. coli NCTC 8196 [1, 10]: >60 µg/mL | Minimum inhibitory concentration (MIC) S. hominis [2]: 3.75 µg/mL (≈ 11.1 µM) | Minimum inhibitory concentration (MIC) Staphylococcus aureus ATCC 9144 [3]: 15 µg/mL (≈ 44.3 µM) | Minimum inhibitory concentration (MIC) Epidermophyton floccosum DSM 10709 [4]: *60 μg/mL | Minimum inhibitory concentration (MIC) Trichophyton mentagrophytes ATCC 9533 [5]: >60 µg/mL | Minimum inhibitory concentration (MIC) Enterococcus hirae ATCC 10541 [6]: 7.5 µg/mL (≈ 22.2 µM) | Minimum inhibitory concentration (MIC) Micrococcus luteus ATCC 9341 [7]: >0.5 µg/mL | Minimum inhibitory concentration (MIC) S. epidermidis ATCC 12228 [8]: 7.5 µg/mL (≈ 22.2 µM)

CCCCCCCCNc1cc(C(F)(F)F)nc(-c2ccccn2)n1 [compound 33]
Minimum inhibitory concentration (MIC) E. coli [1, 9]: >80 µg/mL | Minimum inhibitory concentration (MIC) E. coli NCTC 8196 [1, 10]: >60 µg/mL | Minimum inhibitory concentration (MIC) S. hominis [2]: 2.5 µg/mL (≈ 7.09 µM) | Minimum inhibitory concentration (MIC) Staphylococcus aureus ATCC 9144 [3]: 15 µg/mL (≈ 42.6 µM) | Minimum inhibitory concentration (MIC) Epidermophyton floccosum DSM 10709 [4]: >60 µg/mL | Minimum inhibitory concentration (MIC) Trichophyton mentagrophytes ATCC 9533 [5]: >60 µg/mL | Minimum inhibitory concentration (MIC) Enterococcus hirae ATCC 10541 [6]: 15 µg/mL (≈ 42.6 µM) | Minimum inhibitory concentration (MIC) Micrococcus luteus ATCC 9341 [7]: <0.5 µg/mL | Minimum inhibitory concentration (MIC) S. epidermidis ATCC 12228 [8]: 3.75 µg/mL (≈ 10.6 µM)

CCCCCCCCCNc1cc(C(F)(F)F)nc(-c2ccccn2)n1 [compound 34]
Minimum inhibitory concentration (MIC) E. coli [1, 9]: >120 µg/mL | Minimum inhibitory concentration (MIC) E. coli NCTC 8196 [1, 10]: >60 µg/mL | Minimum inhibitory concentration (MIC) S. hominis [2]: 3.75 µg/mL (≈ 10.2 µM) | Minimum inhibitory concentration (MIC) Staphylococcus aureus ATCC 9144 [3]: >60 µg/mL | Minimum inhibitory concentration (MIC) Epidermophyton floccosum DSM 10709 [4]: >60 µg/mL | Minimum inhibitory concentration (MIC) Trichophyton mentagrophytes ATCC 9533 [5]: >60 µg/mL | Minimum inhibitory concentration (MIC) Enterococcus hirae ATCC 10541 [6]: 60 µg/mL (≈ 164 µM) | Minimum inhibitory concentration (MIC) Micrococcus luteus ATCC 9341 [7]: >0.5 µg/mL | Minimum inhibitory concentration (MIC) S. epidermidis ATCC 12228 [8]: *60 μg/mL

CCCCCCCCCCNc1cc(C(F)(F)F)nc(-c2ccccn2)n1 [compound 35]
MIC [1, 11]: > 120 µg/mL | MIC [1, 12]: > 60 µg/mL | MIC [2]: 3.75 µg/mL (≈ 9.86 µM) | MIC [3]: 7.5 µg/mL (≈ 19.7 µM) | MIC [4]: > 60 µg/mL | MIC [5]: > 60 µg/mL | MIC [6]: 7.5 µg/mL (≈ 19.7 µM) | MIC [7]: < 0.5 µg/mL | MIC [8]: 7.5 µg/mL (≈ 19.7 µM)

CCCCCCCCCCCCCCCCNc1cc(C(F)(F)F)nc(-c2ccccn2)n1 [compound 37]
MIC [1, 11]: > 120 µg/mL | MIC [1, 12]: > 30 µg/mL | MIC [2]: > 120 µg/mL | MIC [3]: 15 µg/mL (≈ 32.3 µM) | MIC [4]: > 60 µg/mL | MIC [5]: > 60 µg/mL | MIC [6]: 30 µg/mL (≈ 64.6 µM) | MIC [7]: 1 µg/mL (≈ 2.15 µM) | MIC [8]: 7.5 µg/mL (≈ 16.1 µM)

CC(C)c1cc(NCCCCCCCCCCCCN)nc(-c2ccccn2)n1 [compound 43]
Minimum inhibitory concentration (MIC) E. coli [1, 9]: 60 µg/mL (≈ 151 µM) | Minimum inhibitory concentration (MIC) E. coli NCTC 8196 [1, 10]: >60 µg/mL | Minimum inhibitory concentration (MIC) S. hominis [2]: 7.5 µg/mL (≈ 18.9 µM) | Minimum inhibitory concentration (MIC) Staphylococcus aureus ATCC 9144 [3]: 30 µg/mL (≈ 75.5 µM) | Minimum inhibitory concentration (MIC) Epidermophyton floccosum DSM 10709 [4]: >60 µg/mL | Minimum inhibitory concentration (MIC) Trichophyton mentagrophytes ATCC 9533 [5]: >60 µg/mL | Minimum inhibitory concentration (MIC) Enterococcus hirae ATCC 10541 [6]: 30 µg/mL (≈ 75.5 µM) | Minimum inhibitory concentration (MIC) Micrococcus luteus ATCC 9341 [7]: 3.75 µg/mL (≈ 9.43 µM) | Minimum inhibitory concentration (MIC) S. epidermidis ATCC 12228 [8]: *15 μg/mL

CCCCCCCNc1cc(C(C)C)nc(-c2ccccn2)n1 [compound 44]
MIC [1, 11]: > 120 µg/mL | MIC [1, 12]: > 30 µg/mL | MIC [2]: 3.75 µg/mL (≈ 12 µM) | MIC [3]: 15 µg/mL (≈ 48 µM) | MIC [4]: 60 µg/mL (≈ 192 µM) | MIC [5]: > 60 µg/mL | MIC [6]: 15 µg/mL (≈ 48 µM) | MIC [7]: 1 µg/mL (≈ 3.2 µM) | MIC [8]: 15 µg/mL (≈ 48 µM)
